Measurements published in patent publication US5932742A, “Arylsulfonylimidazolone derivatives as an antitumor agent” (priority 1996, dated 1999).
In brackets after ≈: the same amount, converted by molar mass. Like-named read-outs stand apart in the source and are kept apart here.

Experiments:
Type in all cases: cell-based
[1] = system: A549 (ATCC CCL 185): human lung carcinoma; test: In vitro antitumor activity, MTT assay, A549; settings: Homo sapiens, A549, 48 h
Procedure: (§1) In vitro antitumor activity against human tumor cell lines
(§2) In vitro antitumor activity of the compounds according to the present invention was determined by MTT assay method against the following human tumor cell lines:
A549 (ATCC CCL 185): human lung carcinoma
(§3) In this test, the known antineoplastic compounds, Doxorubicin and Sulofenur, were used as the comparative agents.
(§4) Each of the tumor cells was cultured in RPMI 1640 media containing 10% fetal bovine serum, 100 IU/ml penicillin and 100 μg/ml streptomycin, and then periodically subcultured once or twice per week in trypsin-EDTA solution containing 0.05% trypsin and 0.53mM EDTA.4Na. The human tumor cell line thus obtained (10,000cells/100 μl) was plated on 96-well microplate and then cultured for 24 hrs at 37° C. in a 5% CO2 incubator. Test compound was dissolved in DMSO, sterilized with 0.22 μm PVDF filter, and then serially 5-fold diluted from 40 μg/ml to 0.00256μg/ml. 100 μl of the sample solution thus prepared and RPMI 1640 medium only (control group) were added to 96-well microplate containing the human tumor cell, respectively. The final concentration of the test compound was in the range from 20 μg/ml to 0.00128 μg/ml and the concentration of DMSO was below 0.5%. The cells were cultured for 48 hrs at 37° C. in a 5% CO2 incubator. MTT(3-(4,5-Dimethylthiazole-2-yl)-e,5-diphenyltetrazoliumbromide) was dissolved in physiological saline in a concentration of 2 mg/ml and the resulting solution was filtered through 0.22 μm PTFE filter. 25 μl of MTT solution thus prepared was added to each well of 96-well microplate and incubated for additional 4 hrs at 37° C. in a 5% CO2 incubator. Then, the content of microplate was centrifuged at 1000 rpm for 10 min, and supernatant was removed by flicking. The formazan formed from MTT by mitochondrial succinate dehydrogenase was dissolved in 100 μl of DMSO. The absorbance of each well was measured at 540nm by micro ELISA reader and the cytotoxicity was calculated by dividing the absorbance of test group by the absorbance of control group. After the calculated cytotoxicity (%) was plotted, the concentration of 50% tumor growth inhibition concentration (IC50) was estimated by Linear-Regression method.

[2] = system: Colo205 (ATCC CCL 222): human colon adenocarcinoma; test: In vitro antitumor activity, MTT assay, Colo205; settings: Homo sapiens, COLO 205, Table 3, 48 hrs, read-out: IC50 (Col205)
Procedure: as §1, §2
Colo205 (ATCC CCL 222): human colon adenocarcinoma
as §3, §4

[3] = system: SK-OV-3 (ATCC HTB 77): human ovarian adenocarcinoma; test: In vitro antitumor activity, MTT assay, SK-OV-3; settings: Homo sapiens
Procedure: as §1, §2
SK-OV-3 (ATCC HTB 77): human ovarian adenocarcinoma
as §3, §4

[4] = system: K562 (ATCC CCL 243): human chronic myelogenous leukemia; test: In vitro antitumor activity, MTT assay, K562; settings: Homo sapiens, K562, 48 h
Procedure: as §1, §2
K562 (ATCC CCL 243): human chronic myelogenous leukemia
as §3, §4

Row | IC50 ([1]; Table 3) [µg/mL] | IC50 [2] [µg/mL] | IC50 ([3]; SK-OV-3, Table 3, 48 hrs) [µg/mL] | IC50 ([4]; Table 3, read-out: IC50 (K562)) [µg/mL] | IC50 ([1]; Table 4) [µg/mL] | IC50 ([3]; SK-OV-3, Table 4, 48 hrs) [µg/mL] | IC50 ([4]; Table 4, read-out: IC50 (K562)) [µg/mL] | Structure (SMILES)
1 | 0.103 (≈ 0.24 µM) | 0.254 (≈ 0.593 µM) | 0.261 (≈ 0.609 µM) | 0.488 (≈ 1.14 µM) | – | – | – | CCCNC(=O)N1CCc2cc(S(=O)(=O)N3CC(c4ccccc4)NC3=O)ccc21 (stereo not shown) [Example 30, 4-phenyl-1-(N-propylcarbamoylindoline-5-sulfonyl)-4,5-dihydro-2-imidazolone]
2 | 0.073 (≈ 0.17 µM) | 0.258 (≈ 0.602 µM) | 0.28 (≈ 0.653 µM) | 0.439 (≈ 1.02 µM) | – | – | – | CC(C)NC(=O)N1CCc2cc(S(=O)(=O)N3CC(c4ccccc4)NC3=O)ccc21 (stereo not shown) [Example 31, 4-phenyl-1-(N-isopropylcarbamoylindoline-5-sulfonyl)-4,5-dihydro-2-imidazolone]
3 | 0.003 (≈ 0.0064 µM) | 0.172 (≈ 0.367 µM) | 0.043 (≈ 0.0918 µM) | 0.0037 (≈ 0.0079 µM) | – | – | – | O=C(NC1CCCCC1)N1CCc2cc(S(=O)(=O)N3CC(c4ccccc4)NC3=O)ccc21 (stereo not shown) [Example 33, 4-phenyl-1-(N-cyclohexylcarbamoylindoline-5-sulfonyl)-4,5-dihydro-2-imidazolone]
4 | 0.286 (≈ 0.599 µM) | 3.24 (≈ 6.78 µM) | 0.763 (≈ 1.6 µM) | 0.004 (≈ 0.00838 µM) | – | – | – | Nc1ccc(NC(=O)N2CCc3cc(S(=O)(=O)N4CC(c5ccccc5)NC4=O)ccc32)cc1 (stereo not shown) [Example 35, 4-phenyl-1-[N-(4-aminophenyl)carbamoylindoline-5-sulfonyl)-4,5-dihydro-2-imidazolone]
5 | 0.18 (≈ 0.365 µM) | 0.391 (≈ 0.794 µM) | 0.047 (≈ 0.0954 µM) | 6.92 (≈ 14 µM) | – | – | – | COc1ccc(NC(=O)N2CCc3cc(S(=O)(=O)N4CC(c5ccccc5)NC4=O)ccc32)cc1 (stereo not shown) [Example 36, 4-phenyl-1-[N-(4-methoxyphenyl)carbamoylindoline-5-sulfonyl]-4,5-dihydro-2-imidazolone]
6 | 2.34 (≈ 4.6 µM) | 0.71 (≈ 1.4 µM) | 0.716 (≈ 1.41 µM) | > 20 | – | – | – | CSc1ccc(NC(=O)N2CCc3cc(S(=O)(=O)N4CC(c5ccccc5)NC4=O)ccc32)cc1 (stereo not shown) [Example 37]
7 | 0.092 (≈ 0.221 µM) | 0.65 (≈ 1.56 µM) | 1.98 (≈ 4.75 µM) | 0.00452 (≈ 0.0109 µM) | – | – | – | CNC(=S)N1CCc2cc(S(=O)(=O)N3CC(c4ccccc4)NC3=O)ccc21 (stereo not shown) [Example 38, 4-phenyl-1-(N-methylthiocarbamoylindoline-5-sulfonyl)-4,5-dihydro-2-imidazolone]
8 | 0.438 (≈ 1.02 µM) | 9.11 (≈ 21.2 µM) | 3.17 (≈ 7.36 µM) | 0.567 (≈ 1.32 µM) | – | – | – | CCNC(=S)N1CCc2cc(S(=O)(=O)N3CC(c4ccccc4)NC3=O)ccc21 (stereo not shown) [Example 39, 4-phenyl-1-(N-ethylthiocarbamoylindoline-5-sulfonyl)-4,5-dihydro-2-imidazolone]
9 | 0.584 (≈ 1.27 µM) | 2.4 (≈ 5.23 µM) | 0.897 (≈ 1.96 µM) | 2.05 (≈ 4.48 µM) | – | – | – | CCCCNC(=S)N1CCc2cc(S(=O)(=O)N3CC(c4ccccc4)NC3=O)ccc21 (stereo not shown) [Example 41, 4-phenyl-1-(N-butylthiocarbamoylindoline-5-sulfonyl)-4 5-dihydro-2-imidazolone]
10 | 0.095 (≈ 0.198 µM) | 2.14 (≈ 4.46 µM) | 10.5 (≈ 21.9 µM) | 0.017 (≈ 0.0355 µM) | – | – | – | O=C1NC(c2ccccc2)CN1S(=O)(=O)c1ccc2c(c1)CCN2C(=S)Nc1ccccc1 (stereo not shown) [Example 42, 4-phenyl-1-(N-phenylthiocarbamoylindoline-5-sulfonyl)-4,5-dihydro-2-imidazolone]
11 | 0.135 (≈ 0.274 µM) | 1.47 (≈ 2.97 µM) | 0.273 (≈ 0.554 µM) | 0.29 (≈ 0.589 µM) | – | – | – | COc1ccccc1NC(=O)N1CCc2cc(S(=O)(=O)N3CC(c4ccccc4)NC3=O)ccc21 (stereo not shown) [Example 44, 4-phenyl-1-[N-(2-methoxyphenyl)carbamoylindoline-5-sulfonyl]-4,5-dihydro-2-imidazolone]
12 | 0.311 (≈ 0.653 µM) | 3.27 (≈ 6.85 µM) | 0.813 (≈ 1.71 µM) | 1.03 (≈ 2.17 µM) | – | – | – | Cc1ccc(NC(=O)N2CCc3cc(S(=O)(=O)N4CC(c5ccccc5)NC4=O)ccc32)cc1 (stereo not shown) [Example 45, 4-phenyl-1-[N-(4-methylphenyl)carbamoylindoline-5-sulfonyl]-4,5-dihydro-2-imidazolone]
13 | 3.29 (≈ 6.63 µM) | 8.74 (≈ 17.6 µM) | 3.13 (≈ 6.3 µM) | 3.94 (≈ 7.94 µM) | – | – | – | O=C1NC(c2ccccc2)CN1S(=O)(=O)c1ccc2c(c1)CCN2C(=S)Nc1ccc(F)cc1 (stereo not shown) [Example 46, 4-phenyl-1-[N-(4-fluorophenyl)thiocarbamoylindoline-5-sulfonyl]-4,5-dihydro-2-imidazolone]
14 | – | – | – | – | 0.774 (≈ 1.61 µM) | 5.97 (≈ 12.4 µM) | 0.594 (≈ 1.23 µM) | O=C(c1ccc(Cl)cc1)N1CCc2cc(S(=O)(=O)N3CC(c4ccccc4)NC3=O)ccc21 (stereo not shown) [Example 53, 4-phenyl-1-[N-(4-chlorobenzoyl)indoline-5-sulfonyl]-4,5-dihydro-2-imidazolone]
15 | – | – | – | – | 0.59 (≈ 1.27 µM) | 2.33 (≈ 5 µM) | 3.64 (≈ 7.83 µM) | O=C(c1ccc(F)cc1)N1CCc2cc(S(=O)(=O)N3CC(c4ccccc4)NC3=O)ccc21 (stereo not shown) [Example 54, 4-phenyl-1-[N-(4-fluorobenzoyl)indoline-5-sulfonyl]-4,5-dihydro-2-imidazolone]
16 | – | – | – | – | 1.7 (≈ 3.45 µM) | 2.09 (≈ 4.24 µM) | 8.88 (≈ 18 µM) | O=C(c1ccc([N+](=O)[O-])cc1)N1CCc2cc(S(=O)(=O)N3CC(c4ccccc4)NC3=O)ccc21 (stereo not shown) [Example 55, 4-phenyl-1-[N-(4-nitrobenzoyl)indoline-5-sulfonyl]-4,5-dihydro-2-imidazolone]
17 | – | – | – | – | 1.59 (≈ 3.36 µM) | 0.968 (≈ 2.05 µM) | 4.96 (≈ 10.5 µM) | N#Cc1ccc(C(=O)N2CCc3cc(S(=O)(=O)N4CC(c5ccccc5)NC4=O)ccc32)cc1 (stereo not shown) [Example 56, 4-phenyl-1-[N-(4-cyanobenzoyl)indoline-5-sulfonyl]-4,5-dihydro-2-imidazolone]
18 | – | – | – | – | 1.62 (≈ 3.36 µM) | 2.6 (≈ 5.39 µM) | 7.04 (≈ 14.6 µM) | O=C(c1cccc(Cl)c1)N1CCc2cc(S(=O)(=O)N3CC(c4ccccc4)NC3=O)ccc21 (stereo not shown) [Example 58, 4-phenyl-1-[N-(3-chlorobenzoyl)indoline-5-sulfonyl]-4,5-dihydro-2-imidazolone]
19 | – | – | – | – | 2.02 (≈ 3.92 µM) | 16.5 (≈ 32 µM) | 1.88 (≈ 3.64 µM) | O=C(c1cc(Cl)cc(Cl)c1)N1CCc2cc(S(=O)(=O)N3CC(c4ccccc4)NC3=O)ccc21 (stereo not shown) [Example 59, 4-phenyl-1-[N-(3,5-dichlorobenzoyl)indoline-5-sulfonyl]-4,5-dihydro-2-imidazolone]
20 | – | – | – | – | 0.328 (≈ 0.705 µM) | 8.51 (≈ 18.3 µM) | 0.619 (≈ 1.33 µM) | O=C(c1cccc(F)c1)N1CCc2cc(S(=O)(=O)N3CC(c4ccccc4)NC3=O)ccc21 (stereo not shown) [Example 60, 4-phenyl-1-[N-(3-fluorobenzoyl)indoline-5-sulfonyl]-4,5-dihydro-2-imidazolone]
21 | – | – | – | – | 1.94 (≈ 4.01 µM) | 1.52 (≈ 3.14 µM) | 5.66 (≈ 11.7 µM) | O=C(c1ccc(F)cc1F)N1CCc2cc(S(=O)(=O)N3CC(c4ccccc4)NC3=O)ccc21 (stereo not shown) [Example 61, 4-phenyl-1-[N-(2,4-difluorobenzoyl)indoline-5-sulfonyl]-4,5-dihydro-2-imidazolone]
22 | – | – | – | – | 2.18 (≈ 4.24 µM) | 11.8 (≈ 22.8 µM) | 1.37 (≈ 2.65 µM) | O=C(c1cccc(C(F)(F)F)c1)N1CCc2cc(S(=O)(=O)N3CC(c4ccccc4)NC3=O)ccc21 (stereo not shown) [Example 62, 4-phenyl-1-[N-(3-trifluoromethylbenzoyl)indoline-5-sulfonyl]-4,5-dihydro-2-imidazolone]
